What was measured:
Assay type in all cases: in vivo
[1] = test system: M. musculus mRNA for macrophage mannose receptor; experiment: Taqman analysis of macrophage mannose receptor mRNA in brain and spleen of treated EAE mice
Description: (§1) In these experiments, EAE (experimental allergic encephalomyelitis) mice were used. The EAE mouse is an animal model for Central Nervous System (CNS) autoimmune disease. It is widely used as a human Multiple Sclerosis (MS) model.
(§2) EAE mice (see protocol below) vehicle only treated and treated with IVL984 or HMR1031 for 14 days (5 mice per group) were sacrificed by cervical dislocation. The brain was aseptically removed and the RNA was prepared using a standard Trizol (Invitrogen) prep (protocol see below). The prepped RNA was run on an agarose gel to determine the quality of the RNA and quantified by UV spec analysis. Taqman analysis was performed using sequence specific primers and probes (sequence see below).
(§3) PLP139-151 peptide is dissolved in H2O:PBS (1:1) solution to a concentration 5 mg/10 ml (for 50 ug PLP per mouse) or 7.5 mg/10 ml (for 75 ug PLP per group) and emulsified with an equal volume of CFA supplemented with 40 mg/10 ml heated-killed mycobacterium tuberculosis H37Ra. Mice are injected s.c. with 0.2 ml of peptide emulsion in the abdominal flank (0.1 ml on each side). On the same day and 72 hr later, mice are injected i.v. with 100 μl of 35 ng and 50 ng of Bordetella Pertussis toxin in saline respectively.
(§4) Treatment IVL984 or HMR1031 or vehicle control only: 0.2% Hydroxypropyl Methylcellulose) started 7 days after immunization, before the first EAE symptoms appeared.
(§5) EAE mice treated with HMR1031A, 50 mg/kg, q.d., s.c. for 14 days from day 7
(§6) EAE mice treated with IVL984 50 mg/kg, q.d., s.c. for 14 days from day 7
Brain was divided into two halves and each half was placed in a steril 1.5 ml tube. 0.5 ml TRIzol was added to each tube and the tissue was homogenized using a hand held tissue homogenizer. After homogenization, another 0.5 ml of TRIzol was added to each tube and the samples were incubated for 5 minutes at room temperature to permit complete dissociation of nucleoprotein complexes.
0.2 ml of Chloroform (Sigma) was added to each tube and vortexed. Samples were incubated for an additional 5 minutes at room temperature and then centrifuged at 12,000×g for 15 minutes at 4° C.
The upper aqueous phase was transferred into a fresh, steril tube and the two sample halves per mouse were combined. 0.5 ml isopropylalcohol was added to each combined sample, vortexed and incubated at room temperature for 10 minutes. The samples were then centrifuged at 12,000×g at 4° C. […]
(§7) The final pellets were briefly air dried and resuspended in nuclease-free, sterile water. […] The concentration was determined by measuring the absorbance at 260 nm.
Taqman primers were ordered for Mus musculus mRNA for macrophage mannose receptor (Accession number: Z11974). […] The results were normalized to 18S and expressed as logarithm base 2 of copy number difference with 18S RNA levels. […]

JAB or SOCS-1 protein = experiment: FACS analysis of SOCS-1 (JAB) protein in spleen cells of treated EAE mice; settings: 50 mg/kg q.d. s.c. for 14 days from day 7, FACS with C- and N-terminal antibodies, vs vehicle
From the text: In these experiments, EAE (experimental allergic encephalomyelitis) mice as well as KO and wt mice of the present invention were used. The EAE mouse is an animal model for Central Nervous System (CNS) autoimmune disease. It is widely used as a human Multiple Sclerosis (MS) model.
EAE mice (see protocol below) vehicle only treated and treated with IVL984 for 14 days (5 mice per group) as well as 5 alpha-4 integrin KO mice of the present invention and 4 wt mice of the same genetic background were sacrificed by cervical dislocation. The spleen was aseptically removed and placed in a 15 ml centrifuge tube containing RPMI 1640 medium with 1% FCS. The spleens were then individually meshed in a 10 cm petri dish through a sterile wire screen using a sterile rubber policeman (0.23 mm pore size screen, Thomas Scientific). The screen was washed and the cell suspension collected and transferred into a 15 ml centrifuge tube. After centrifugation at 1200 rpm for 10 minutes at 4° C., the supernatant was decanted and the red blood cells lysed with 1 ml/spleen ice-cold red blood cell lysis buffer for 1-3 minutes on ice. The supernatant was then carefully transferred into a fresh 15 ml centrifuge tube, leaving the fat pellet behind. […] The number of alive cells was determined using a hemacytometer (Hauser Scientific) and Trypan Blue (Gibco, Life Technologies) as the dye. […]

EST AA571535 = experiment: Taqman analysis of EST AA571535 in brain and spleen of treated EAE mice
Description: as §1, §2, §3, §4, §5, §6
(§8) Brain was divided into two halves and each half was placed in a sterile 1.5 ml tube. 0.5 ml TRIzol was added to each tube and the tissue was homogenized using a hand held tissue homogenizer. […]
as §7
(§9) Taqman primers were ordered for the EST with the accession number AA571535 (EST AA571535 (sequence for the EST: SEQ ID NO 18). Primers for the real time Taqman PCR studies were chosen using Primer Express software (Perkin Elmer) and synthesized by Sigma Genosys. The sequences of the forward and reverse primers were AGCAGCCATGGGAGGCA (SEQ ID NO: 19) and TCCGTTTCCCCACAGCAC (SEQ ID NO: 20) respectively. PCR product was run on the 4% agarose gel to confirm presence of a single band. PCR reactions were run on ABI Prizm System 7700 sequence detector (Perkin-Elmer) using CybrGreen PCR Core Reagents Kit (Perkin-Elmer) according to the manufacturer's protocol. […] The results were normalized to 18S and expressed as logarithm base 2 of copy number difference with18S RNA levels. […]

EST AA154371 = experiment: Taqman analysis of EST AA154371 in brain and spleen of treated EAE mice
Description: as §1, §2
as §3, with “respectively. Treatment IVL984 or HMR1031 or vehicle control only: 0.2% Hydroxypropyl Methylcellulose) started 7 days after immunization, before the first EAE symptoms appeared.” for “respectively.”
as §5, §6, §8, §7
as §9, with “AA154371” for “AA571535”, “21).” for “18).”, “GACAGGGCTGAGGATTCGG” for “AGCAGCCATGGGAGGCA”, “22)” for “19)”, “TCCGTTTCCCCACAGCAC” left out, “23)” for “20)”

[2] = EAE mice, 50 mg/kg q.d. s.c. for 14 days from day 7, brain, vs vehicle control
[3] = EAE mice, 50 mg/kg q.d. s.c. for 14 days from day 7, spleen, vs vehicle control
[4] = bodily samples of treated EAE mice, tissue not given

COc1cc(CC(=O)Nc2ccc([C@@H](CC(=O)O)NC(=O)CCCC(=O)O)cc2)ccc1NC(=O)Nc1ccccc1C [IVL 984]
Macrophage mannose receptor, Brain [1, 2]: Tendency (The decrease in macrophage mannose receptor mRNA levels is a statistically significant, a probability rate of 5-15%.) | Macrophage mannose receptor, Spleen [1, 3]: — (The changes in mRNA levels are statisically significant at a probability rate of higher than 15% (not significant).) | macrophage mannose receptor mRNA levels in comparison to vehicle control mice ([1]; EAE mice, brain samples): statistically significant lower | levels of the genetic marker macrophage mannose receptor mRNA [1, 4]: decreased levels of expression | levels of JAB or SOCS-1 protein (JAB or SOCS-1 protein): decreased levels of expression on the protein level | EST AA 571535, Brain (EST AA571535; [2]): — (The changes in mRNA levels are statistically significant at a probability rate of higher than 15% (not significant).) | EST AA 571535, Spleen (EST AA571535; [3]): — (The changes in mRNA levels are statistically significant at a probability rate of higher than 15% (not significant).) | EST AA571535 mRNA levels in comparison to vehicle control mice (EST AA571535; EAE mice, brain samples): statistically significant lower | levels of the genetic marker EST AA571535 (EST AA571535; [4]): decreased levels of expression | EST AA 154371, Brain (EST AA154371; [2]): ✓ (Statistically significant decrease in macrophage mannose receptor mRNA or protein levels with a 5% or lower probability rate in treated mice compared to vehicle control mice.) | EST AA 154371, Spleen (EST AA154371; [3]): ✓ (Statistically significant decrease in macrophage mannose receptor mRNA or protein levels with a 5% or lower probability rate in treated mice compared to vehicle control mice.) | EST AA154371 mRNA levels in comparison to vehicle control mice (EST AA154371; EAE mice, brain samples): statistically significant lower | levels of the genetic marker EST AA154371 (EST AA154371; [4]): decreased levels of expression
